Experimental data: patent publication US3965109A, “Certain aryl amino pyridines” (priority 1971, dated 1976)
Like-named read-outs stand apart in the source and are kept apart here.

Columns and labels:
[1] = test system: Phaedon cochleariae (mustard beetles); test: Pest toxicity test; assay type: in vivo; conditions: in vivo
Uncinula necator (vine) = test: Fungicidal test against foliar disease D (foliage spray plus soil drench); assay type: in vivo; conditions: 10 days; for Amount of disease grading, disease D (Table 4): 100 ppm spray and drench
[2] = test system: Aedes aegypti (mosquito adults); test: Pest toxicity test; assay type: in vivo; conditions: 0.01% by weight; plywood; 1 day
[3] = test system: Plutella maculipennis (diamond back moth larvae); test: Pest toxicity test; assay type: in vivo; conditions: in vivo
[4] = test system: Phytophthora infestans (tomato); assay type: in vivo; conditions: 3 days; for Amount of disease grading, disease B (Table 4): 100 ppm spray and drench
[5] = test system: Tetranychus telarius (red spider mites, eggs); test: Pest toxicity test; assay type: in vivo; conditions: 0.1% by weight; French bean; 3 days
[6] = test system: Plasmopara viticola (vine); test: Fungicidal test against foliar disease C (foliage spray plus soil drench); assay type: in vivo; conditions: 10 days
[7] = test system: Tetranychus telarius (red spider mites, adults); test: Pest toxicity test; assay type: in vivo; conditions: 0.1% by weight; French bean; 3 days
[8] = test system: Aedes aegypti (mosquito larvae); test: Pest toxicity test; assay type: in vivo; conditions: 0.01% by weight; water; 1 day
[9] = test system: Musca domestica (houseflies); test: Pest toxicity test, contact test; assay type: in vivo; conditions: 0.1% by weight; milk/sugar; 2 days; flies sprayed directly
Megoura viceae = test: Pest toxicity test; assay type: in vivo; conditions: 0.1% by weight; broad bean; 2 days
[10] = test system: Meloidogyne incognita (nematodes); test: Pest toxicity test; assay type: in vivo; conditions: 0.01% by weight; water; 1 day
Aphis fabae = test: Pest toxicity test; assay type: in vivo; conditions: 0.1% by weight; broad bean; 2 days
[11] = test system: Pieris brassicae (cabbage white caterpillars); test: Pest toxicity test; assay type: in vivo; conditions: 0.1% by weight, 2 days
[12] = test system: Venturia inaequalis (apple); test: Fungicidal test against foliar disease G (foliage spray plus soil drench); assay type: in vivo; conditions: 21 days
Procedure: This Example illustrates the fungicidal properties of compounds used as active ingredients in the compositions of the invention. The compounds were tested against a wide variety of foliar fungal diseases of plants. In the test, a composition comprising an aqueous solution or suspension of the test compound was sprayed on to the foliage or uninfected plants; the soil in which the plants were growing was also drenched with the composition. The compositions used for spraying and drencing contained 100 parts per million (ppm.) of the test compound except where otherwise stated in the table of results below. After spraying and drenching, the plants were then exposed to infection with the diseases it was desired to control, along with control plants not treated with the compound. After a period of days, depending upon the particular disease, the extent of the disease was visually assessed, as a percentage of the disease established upon the control plants which had not been treated with the compound under test, according to the grading scheme below
In Table 2 below the names of the disease is given in the first column, and in the second column is given the time which elapsed between exposing the plants to infection and assessing the amount of disease.

[13] = test system: Piricularia oryzae (rice); assay type: in vivo; conditions: 7 days
[14] = test system: Puccinia recondita (wheat); test: Fungicidal test against foliar disease A (foliage spray plus soil drench); assay type: in vivo; conditions: 10 days
Pseudomonas syringae = test: Antibacterial agar test (B6); assay type: cell-based; conditions: 50 ppm; 5 days
[15] = test system: Corynebacterium michiganense; test: Antibacterial agar test (B2); assay type: cell-based; conditions: 50 ppm; 5 days
In short: (§1)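 Compound was dissolved or suspended in acetone and mixed into nutrient agar to 50 ppm final, then dried overnight in Petri dishes. Plates were inoculated with the bacteria via multipoint inoculator and antibacterial activity was graded after 5 days.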

Xanthomonas malvacearum = test: Antibacterial agar test (B3); assay type: cell-based; conditions: 50 ppm; 5 days
In short: as §1

[16] = test system: Agrobacterium tumifaciens; test: Antibacterial agar test (B1); assay type: cell-based; conditions: 50 ppm; 5 days
Streptomyces scabies = test: Antibacterial agar test (B7); assay type: cell-based; conditions: 50 ppm; 5 days
Erwinia carotovora = test: Antibacterial agar test (B4); assay type: cell-based; conditions: 50 ppm; 5 days
Xanthomonas oryzae = assay type: cell-based; conditions: 50 ppm; 5 days
[17] = test system: Agriolimax reticulatus (slugs); test: Molluscicidal activity test; assay type: in vivo, Agriolimax reticulatus (Mull); conditions: pellet with 4% by weight; 6 days; 10°C
In short: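 Compound was applied to a calf feeding pellet at 4% by weight active ingredient after 24 h air drying. Two replicates, each of 2 slugs starved 24 h, were kept with a moist filter paper at 10°C, and kill was assessed after 6 days.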

[18] = test system: larvae of the blowfly (Lucilia serrata); test: Insecticidal test on blowfly larvae on treated filter paper; assay type: in vivo; parameters: key: 5 represents inseccticidal activity equal to that of the known insecticide; 6 represents activity 10 times that of the standard; conditions: scale of 1 to 6; filter paper with horse serum
Lettuce = test: Herbicidal test, pre- and post-emergence; assay type: in vivo; conditions: 10 kg/ha; scale 0 to 3 (complete kill)
Wheat = test: Herbicidal test, pre- and post-emergence; assay type: in vivo; conditions: 10 kg/ha; scale 0 to 3 (complete kill)
Maize = test: Herbicidal test, pre- and post-emergence; assay type: in vivo; conditions: 10 kg/ha; scale 0 to 3 (complete kill)
Tomato = test: Herbicidal test, pre- and post-emergence; assay type: in vivo; conditions: 10 kg/ha; scale 0 to 3 (complete kill)
[19] = 50 ppm spray + 200 ppm soil drench

Row | Structure (SMILES) | Mortality grading (kill) [1] | Mortality grading (kill) [2] | Mortality grading (kill) [3] | Mortality grading (kill) [5] | Mortality grading (kill) [7] | Mortality grading (kill) [8] | Mortality grading (kill), contact test [9] | Mortality grading (kill) (Megoura viceae) | Mortality grading (kill) [10] | Mortality grading (kill) (Aphis fabae) | Mortality grading (kill) [11] | Antibacterial activity grading B6 (Pseudomonas syringae) | Antibacterial activity grading B2 [15] | Antibacterial activity grading B3 (Xanthomonas malvacearum) | Antibacterial activity grading B1 [16] | Antibacterial activity grading B7 (Streptomyces scabies) | Antibacterial activity grading B4 (Erwinia carotovora) | Antibacterial activity grading B5 (Xanthomonas oryzae) | Amount of disease grading, disease D (Table 4) (Uncinula necator (vine)) | Amount of disease grading, disease B (Table 4) [4] | further results
1 | Fc1nc(F)c(Cl)c(Nc2c(Cl)cccc2Cl)c1Cl [Compound 3, 3,5-Dichloro-2,6-difluoro-4(2,6-dichloroanilino)pyridine] | 0 (key: O represents less than 30% kill; 1 represents 30 - 49% kill; 2 represents 60 - 90% kill; 3 represents over 90% kill; C indicates a chemosterilant effect.; A indicates an antifeeding effect.) | 0 (O represents less than 30% kill) | 0 (key: O represents less than 30% kill; 1 represents 30 - 49% kill; 2 represents 60 - 90% kill; 3 represents over 90% kill; C indicates a chemosterilant effect.; A indicates an antifeeding effect.) | 2 (2 represents 60 - 90% kill) | 0 (O represents less than 30% kill) | 0 (O represents less than 30% kill) | 0 (O represents less than 30% kill) | 0 (O represents less than 30% kill) | 2 (2 represents 60 - 90% kill) | 0 (O represents less than 30% kill) | 0 (O represents less than 30% kill) |  |  |  |  |  |  |  |  |  | Amount of disease grading, disease D (Uncinula necator (vine); [19]): 3 (0 to 5); Amount of disease grading, disease B [4, 19]: 0 (61 to 100); Amount of disease grading, disease C [6, 19]: 2 (6 to 25); Amount of disease grading, disease G [12, 19]: 0 (61 to 100); Amount of disease grading, disease E [13, 19]: 0 (61 to 100); Amount of disease grading, disease A [14, 19]: 0 (61 to 100)
2 | COc1nc(F)c(Cl)c(Nc2c(F)c(F)c(C#N)c(F)c2F)c1Cl [Compound 21, 2-Fluoro-3,5-dichloro-6methoxy-4(4-cyano-2,3,5,6-tetrafluoroanilino)pyridine] | 0 (key: O represents less than 30% kill; 1 represents 30 - 49% kill; 2 represents 60 - 90% kill; 3 represents over 90% kill; C indicates a chemosterilant effect.; A indicates an antifeeding effect.) | 0 (O represents less than 30% kill) | 1 (key: O represents less than 30% kill; 1 represents 30 - 49% kill; 2 represents 60 - 90% kill; 3 represents over 90% kill; C indicates a chemosterilant effect.; A indicates an antifeeding effect.) | 0 (O represents less than 30% kill) | 0 (O represents less than 30% kill) | 3 (3 represents over 90% kill) | 2 (2 represents 60 - 90% kill) | 0 (O represents less than 30% kill) |  | 0 (O represents less than 30% kill) | 0 (O represents less than 30% kill) | 3 (0 to 5) | 3 (0 to 5) | 3 (0 to 5) | 2 (6 to 25) | 3 (0 to 5) | 3 (0 to 5) | 2 (6 to 25) |  |  | Amount of disease grading, disease C ([6]; 100 ppm spray and drench): 3 (0 to 5); Amount of disease grading, disease G ([12]; 100 ppm spray and drench): 3 (0 to 5); Amount of disease grading, disease E ([13]; 100 ppm spray and drench): 3 (0 to 5); Amount of disease grading, disease A ([14]; 100 ppm spray and drench): 3 (0 to 5)
3 | O=[N+]([O-])c1cc([N+](=O)[O-])c2ccccc2c1Nc1c(Cl)c(F)nc(F)c1Cl [Compound 25, 3,5-Dichloro-2,6-difluoro-4(2,4-dinitro-1-naphthylamino) pyridine] | 2 (key: O represents less than 30% kill; 1 represents 30 - 49% kill; 2 represents 60 - 90% kill; 3 represents over 90% kill; C indicates a chemosterilant effect.; A indicates an antifeeding effect.) | 0 (O represents less than 30% kill) | 0 (key: O represents less than 30% kill; 1 represents 30 - 49% kill; 2 represents 60 - 90% kill; 3 represents over 90% kill; C indicates a chemosterilant effect.; A indicates an antifeeding effect.) | 2 (2 represents 60 - 90% kill) | 0 (O represents less than 30% kill) | 3 (3 represents over 90% kill) | 0 (O represents less than 30% kill) | 0 (O represents less than 30% kill) | 3 (3 represents over 90% kill) | 0 (O represents less than 30% kill) | 3 (3 represents over 90% kill) |  |  |  |  |  |  |  | 3 (0 to 5) | 3 (0 to 5) | Amount of disease grading, disease C (Table 4) ([6]; 100 ppm spray and drench): 3 (0 to 5); % Kill of slugs [17]: 50%; Activity relative to lindane [18]: 5; Amount of disease grading, disease E (Table 4) ([13]; 100 ppm spray and drench): 0 (61 to 100); Amount of disease grading, disease A (Table 4) ([14]; 100 ppm spray and drench): 2 (6 to 25)
4 | N#Cc1cc([N+](=O)[O-])c(Nc2c(Cl)c(F)nc(F)c2Cl)c([N+](=O)[O-])c1 [Compound 34, 4(4-Cyano-2,6-dinitroanilino)-3,5-dichloro-2,6-difluoropyridine] | 0 (key: O represents less than 30% kill; 1 represents 30 - 49% kill; 2 represents 60 - 90% kill; 3 represents over 90% kill; C indicates a chemosterilant effect.; A indicates an antifeeding effect.) | 0 (O represents less than 30% kill) | 2 (key: O represents less than 30% kill; 1 represents 30 - 49% kill; 2 represents 60 - 90% kill; 3 represents over 90% kill; C indicates a chemosterilant effect.; A indicates an antifeeding effect.) | 3 (3 represents over 90% kill) | 3 (3 represents over 90% kill) | 3 (3 represents over 90% kill) |  | 0 (O represents less than 30% kill) |  | 3 (3 represents over 90% kill) | 0 (O represents less than 30% kill) | 3 (0 to 5) | 3 (0 to 5) | 2 (6 to 25) | 0 (61 to 100) | 3 (0 to 5) | 0 (61 to 100) | 2 (6 to 25) | 3 (0 to 5) | 3 (0 to 5) | Amount of disease grading, disease C (Table 4) ([6]; 100 ppm spray and drench): 3 (0 to 5); % Kill of slugs [17]: 100%; Damage to plants, post-emergence (Lettuce): 0; Damage to plants, pre-emergence (Lettuce): 3; Damage to plants, post-emergence (Wheat): 0; Damage to plants, pre-emergence (Wheat): 3; Damage to plants, post-emergence (Maize): 0; Damage to plants, pre-emergence (Maize): 3; Damage to plants, post-emergence (Tomato): 0; Damage to plants, pre-emergence (Tomato): 2; Activity relative to lindane [18]: 5
